Key:
[1] = test system: dentate gyrus of hippocampus; assay: induction of LTP in hippocampal of rat (population spike amplitude); type: in vivo, SD rats; details: I.C.V.; means ± SD
Description: Adult male SD rats were anesthetized to maintain a surgical level. A stainless steel cannula-recording electrode was placed in DG (dentate gyrus) of hippocampus using a stereotaxic instrument. The combination of cannula-recording electrode was constructed by insulating the outside of the cannula, except at the tip and top. In the top noninsulated area, a stainless steel wire was wrapped around the cannula and connected to the amplifier via an amphenol connector. The four pairs optically active clausenamides shown in table 9 was delivered by I.C.V. Responses were evoked via direct stimulation of the performant path (PP) using a stainless steel bipolar stimulating electrode. Constant current stimulation provided by a stimulator was delivered to the stimulating electrode through a Stimulus Isolation Unit.
The stimulating electrode was adjusted until a characteristic EPSP was observed under constant current. The evoked responses were amplified on a series alternating current preamplifier, using a microcomputer, and then stored for off-line analysis using DataWave software. The current intensity that elicited a 50% maximal response in each animal was determined and used for all subsequent stimulation. To measure treatment effects, responses were evoked once every 30 sec throughout the entire experiment, and population spike amplitude(PSA) were calculated.

[2] = test system: Human embryonic neural stem cells; assay: colony-form frequency in human embryonic neural stem cells; type: cell-based; details: 1 μM; for Colonies, 6 weeks / Colonies, 4 weeks / Colonies, 3 weeks: N 4; for Colonies, 6 weeks: Control(DMSO) 22.25 ± 4.86; for Colonies, 4 weeks: Control(DMSO) 30.33 ± 4.99; for Colonies, 3 weeks: Mean ± SD, Control(DMSO) 43.00 ± 4.97
Protocol: Human embryonic brain neural stem cells(NSC) were dissociated enzymatically with 0.05% trypsin-0.53 mM EDTA and cultured in the DMEM/F12 medium with N2 supplement (GIBCO), fibroblast growth factor-2 (20 ng/ml), epidermal growth factor (20 ng/ml) at 37° C. The media were changed once every week. The single cell suspension from neurosphere cells of NSC was dissociated by 0.1% trypsin. 2×10^4 cells were seeded in a well of a 96-well plate. After 24 hours, the dose at 1 μM of tested chemical was added in a well. 6 chemicals, (−)neoclausenamide(−), (+)neoclausenamide(+), (−)epineoclausenamide(−), (+)epineoclausenamide(+), (−)cisneoclausenamide(−) and (+)cisneoclausenamide(+), were detected. 4 wells were used each group. The media with tested chemical were changed once every week. The colonies of NSC were formed and counted under a microscopy at 3 weeks, 4 weeks and 6 weeks.

Structure (SMILES) | PSA (%), 15 min [1] | PSA (%), 30 min [1] | PSA (%), 60 min [1] | frequency of colonies of NSC vs control group at 6 weeks (in words) [2] | Colonies, 6 weeks [2] | Colonies, 4 weeks [2] | Colonies, 3 weeks [2]
CN1C(=O)[C@@H](O)[C@H]([C@@H](O)c2ccccc2)[C@H]1c1ccccc1 [(+)cisclausenamide, 3S4S5S6R (+)cisclausenamide] | 87.3 ± 4.4% | 102.9 ± 5.9% | 122.5 ± 14.5% |  |  |  | 
CN1C(=O)[C@H](O)[C@@H]([C@@H](O)c2ccccc2)[C@H]1c1ccccc1 [(+)cisneoclausenamide, 3R4R5S6R (+)cisneoclausenamide] | 135.0 ± 12.9% | 150.9 ± 19.9% | 192.3 ± 22.4% | not any difference | 24.00 ± 4.69 | 42.50 ± 10.01 | 47.00 ± 9.03
CN1C(=O)[C@H](O)[C@H]([C@H](O)c2ccccc2)[C@H]1c1ccccc1 [(+)epiclausenamide, 3R4S5S6S (+)epiclausenamide] | 136.0 ± 22.8% | 147.5 ± 15.0% | 207.8 ± 12.8% |  |  |  | 
CN1C(=O)[C@H](O)[C@H]([C@@H](O)c2ccccc2)[C@@H]1c1ccccc1 [(+)epineoclausenamide, 3R4S5R6R(+)epineoclausen amide] |  |  |  | not any difference | 26.00 ± 2.94 | 38.50 ± 5.02 | 49.75 ± 10.26
CN1C(=O)[C@H](O)[C@@H]([C@H](O)c2ccccc2)[C@@H]1c1ccccc1 [(−)cisclausenamide, 3R4R5R6S (−)cisclausenamide] | 126.2 ± 2.3% | 141.2 ± 8.6% | 205.4 ± 24.7% |  |  |  | 
CN1C(=O)[C@@H](O)[C@H]([C@H](O)c2ccccc2)[C@@H]1c1ccccc1 [(−)cisneoclausenamide, 3S4S5R6S (−)cisneoclausenamide] | 94.1 ± 6.7% | 98.2 ± 6.6% | 94.9% | significantly difference | 33.50 ± 4.20 | 35.25 ± 7.46 | 49.50 ± 5.43
CN1C(=O)[C@@H](O)[C@@H]([C@@H](O)c2ccccc2)[C@@H]1c1ccccc1 [(−)epiclausenamide, 3S4R5R6R (−)epiclausenamide] | 97.8 ± 21.7% | 91.2 ± 22.5% | 117.3 ± 22.5% |  |  |  | 
CN1C(=O)[C@@H](O)[C@@H]([C@H](O)c2ccccc2)[C@H]1c1ccccc1 [(−)epineoclausenamide, 3S4R5S6S(−)epineoclausenamide] |  |  |  | significantly difference | 32.50 ± 7.05 | 36.75 ± 7.59 | 58.00 ± 13.02

From patent publication US6787564B2, “Optically active clausenamides, process of the preparation thereof, pharmaceutical composition containing the same and their medical use” (Institute of Materia Medica, Chinese Academy of Medical …, priority 2002, dated 2004)
